Measurements from patent US8735415B2, “Acid addition salts of (3,5-Bis trifluoromethyl)-N-[4-methyl-3-(4-pyridin-3yl-pyrimidin-2ylamino)-phenyl]-benzamide” (Natco Pharma Limited, priority 2004, dated 2014).
pIC50: −log10 of the molar value. Converted amounts (≈) assume the structure as drawn.

Columns and labels:
[1] = Flow properties, angle of repose; assay type: physicochemical
[2] = Stability under high humidity conditions (water content by Karl-Fischer method); assay type: physicochemical; details: for Final moisture content - After 48 hours at 25° C. at humidity of 60%: humidity 60%; for Final moisture content - After 48 hours at 25° C. at humidity of 60% / Final moisture content - After 48 hours at 40° C. at humidity of 75% / Initial moisture content (%): Karl-Fischer; for Final moisture content - After 48 hours at 40° C. at humidity of 75%: humidity 75%; for Initial moisture content (%): before storage; for Hygroscopicity (conclusion in words): conclusion from Table 1
Mice = experiment: Maximum tolerated dose (MTD) for 14 days; assay type: in vivo; details: for MTD (mg/kg, po): Mice, 14 days
Description: Maximum Tolerated Dose—Non-Toxic Nature

[3] = Solubility by the shake flask method; details: for Solubility (mg/ml): Medium: Water
Description: General conditions: Room temperature (25° C.), stirring speed: 200 RPM, Analytical method: UV

[4] = system: T315I cell line, chronic myelogenous leukemia (CML) mutant; experiment: Activity in cell culture, T315I cell proliferation; assay type: cell-based; details: for pIC50: 0.625×10^5 cells/ml, 10 μM to 0.156 μM
[5] = system: K562 cell line, chronic myelogenous leukemia (CML); experiment: Activity in cell culture, K562 cell proliferation; assay type: cell-based; details: for Potency in inhibiting cell proliferation compared with Imatinib: K562; for pIC50: K562, 0.312×10^5 cells/ml, 72 Hrs, 10 μM to 0.156 μM
[6] = Bioavailability study in mice; assay type: in vivo
[7] = 0.1N HCl, 25 °C, simulated gastric fluid, thermodynamic from solid

Compound | Angle of Repose (degrees °) [1] [degrees °] | Final moisture content - After 48 hours at 25° C. at humidity of 60% [2] [%] | Final moisture content - After 48 hours at 40° C. at humidity of 75% [2] [%] | Initial moisture content (%) [2] [%] | Hygroscopicity (conclusion in words) [2] | MTD (mg/kg, po) (Mice) | solubility [3, 7] [µg/mL] | Potency in inhibiting cell proliferation compared with Imatinib [4] | Potency in inhibiting cell proliferation compared with Imatinib [5] | Solubility (mg/ml) ([3]; 25° C., 200 RPM, UV) | also measured
Cc1ccc(NC(=O)c2cc(C(F)(F)F)cc(C(F)(F)F)c2)cc1Nc1nccc(-c2cccnc2)n1.Cc1ccc(S(=O)(=O)O)cc1 [AN-019T, (3,5-Bis trifluoromethyl)-N-[4-methyl-3-(4-pyridin-3-yl-pyrimidin-2-ylamino)-phenyl]-benzamide 4-toluene sulfonate monohydrate] | 30.74 | 2.7 | 2.8 | 2.7 | non-hygroscopic | 1000.0 mg/kg, po | 40.2 | more potent than Imatinib | more potent than Imatinib |  | Flow properties compared with the base ([1]; conclusion from Table 4): a lower angle of repose and better flow properties when compared with corresponding base; Toxicity compared with the base (Mice; conclusion from Table 3, mice): substantially less toxic than the corresponding base; Solubility compared with the other salts ([3]; conclusion from Table 2): improved solubility properties among other salts investigated; solubility ([3]; water, 25 °C, thermodynamic from solid): 7.8 µg/mL; pIC50 ([4]; 72 Hrs, monohydrate): 6.96; pIC50 ([5]; monohydrate): 6.58
CS(=O)(=O)O.Cc1ccc(NC(=O)c2cc(C(F)(F)F)cc(C(F)(F)F)c2)cc1Nc1nccc(-c2cccnc2)n1 [(3,5-Bis trifluoromethyl)-N-[4-methyl-3-(4-pyridin-3-yl-pyrimidin-2-ylamino)-phenyl]-benzamide methane sulfonate] |  | 0.7 | 0.7 | 0.6 | non-hygroscopic |  |  |  |  |  | 
Cc1ccc(NC(=O)c2cc(C(F)(F)F)cc(C(F)(F)F)c2)cc1Nc1nccc(-c2cccnc2)n1 [AN-019, (3,5-Bistrifluoromethyl)-N-[4-methyl-3-(4-pyridin-3-yl-pyrimidin-2-ylamino)-phenyl]-benzamide] | 41.57 |  |  |  |  | 500.0 mg/kg, po | 1.3 (≈ 2.51 µM) | more potent than Imatinib | more potent than Imatinib | Almost no | AUC [6]: 611.46 ng·h/mL; Cmax ([6]; mouse, in vivo): 93.7 ng/mL; Tmax ([6]; mouse, in vivo): 6 h; pIC50 ([4]; 72 h): 7.00; pIC50 ([5]; Homo sapiens, K562, 72 h): 6.69
Cc1ccc(NC(=O)c2cc(C(F)(F)F)cc(C(F)(F)F)c2)cc1Nc1nccc(-c2cccnc2)n1.Cl [(3,5-Bis trifluoromethyl)-N-[4-methyl-3-(4-pyridin-3-yl-pyrimidin-2-ylamino)-phenyl]-benzamide hydrochloride] |  | 0.7 | 0.7 | 0.6 | non-hygroscopic |  |  |  |  | Almost no | solubility ([3]; Medium: 0.1N HCl, 25° C., 200 RPM, UV): 13.4 µg/mL
